Experimental data published in patent US9855265B2, “Methods for treating cancer with TrkA receptor tyrosine kinase antagonists” (VM Oncology LLC, priority 2014, dated 2018).
Like-named read-outs stand apart in the source and are kept apart here.

Columns and labels:
[1] = test system: CCI rats, mechanical allodynia; conditions: CCI rats, 150 mg/kg oral dose
Description: Chronic Constriction Injury (CCI) Model of Neuropathic Pain in Rats. […] Chronic constriction injury of the sciatic nerve was produced by tying four loose ligatures around the left sciatic nerve according to the method of Bennett and Xie. […] Calibrated von Frey filaments were used to determine the lowest mechanical (tactile) threshold required to evoke a brisk paw withdrawal reflex in the rat hindpaws. Rats were allowed to acclimatize in wire mesh cages for 15-20 min prior to von Frey testing. Assessment of paw withdrawal thresholds (PWTs) using von Frey filaments was undertaken prior to CCI-surgery (pre-surgery baseline on day 0). Before the drug dosing on day 14, the pre-dose baseline was recorded for each rat. […] Drug-naïve CCI-rats (n=4-6 per group) were used. The oral vehicle was 0.5% CMC-Na/0.1% Tween 80 in distilled water. The positive control gabapentin was dissolved in the vehicle and orally given at 100 mg/kg (by oral gavage). Test compound was suspended in the vehicle and orally given at 50 mg/kg and 100 mg/kg.

PKCtheta = PKCtheta (Homo sapiens, UniProt Q04759); test: radiometric kinase assay, other kinases: PKCtheta; assay type: biochemical; conditions: duplicate
Description: (§1) Compound inhibition in a radiometric based mixed micelle assay: In a final reaction volume of 25 μL, TrkA (h) ([…]) is incubated with the kinase reaction buffer (20 mM HEPES (pH 7.5), 10 mM MgCl2, 1 mM EGTA, 0.02% Brij 35, 0.02 mg/ml BSA, 0.1 mM Na3VO4, 2 mM DTT, 1% DMSO), 0.2 mg/ml substrate PolyEY(4:1) and […], and [^33P-ATP](specific activity approx. 500 cpm/pmol, concentration as required). The reaction is initiated by the addition of the MgATP mix. After incubation for at least 40 minutes at room temperature, the reaction is stopped by the addition of 5 μL of a 3% phosphoric acid solution. 10 μL of the reaction is then spotted onto a P30 filtermat and washed three times for 5 minutes in 75 mM phosphoric acid and once in methanol prior to drying and scintillation counting. TrkA: Recombinant Human Cytoplasmic Domain (amino acids 441-796), Histidine-tagged, expressed in insect cells. Activated in vitro via auto-phosphorylation. Mw=42.8 kDa. Substrates for kinases: poly(EY) for TRKA; poly(EY)(4:1) with 2 mM MnCl2, average Mw=16 kDa Standard conditions (unless otherwise specified): 30 nM TRKA, 0.2 mg/ml poly(EY)+2 mM MnCl2, and 10 μM ([γ-^33P]) ATP. Using the similar assay condition with other kinases of recombinant human cytoplasmic domain, the activities of other kinases could be also measured.

CDK1/cyclinB = CDK1/cyclinB (Homo sapiens, UniProt P06493); test: radiometric kinase assay, other kinases: CDK1/cyclinB; assay type: biochemical; conditions: duplicate
Description: as §1

EPHA1 = biological target: T1, EPHA1 (Homo sapiens, UniProt P21709); test: radiometric kinase assay, other kinases: EPHA1; assay type: biochemical; conditions: duplicate
T1 construct: other kinases of recombinant human cytoplasmic domain
Description: as §1

c-Src = c-Src (Homo sapiens, UniProt P12931); test: radiometric kinase assay, other kinases: c-Src; assay type: biochemical; conditions: duplicate
Description: as §1

[2] = Pharmacokinetics and bioavailability in CD-1 mice; conditions: in vivo
Description: Pharmacokinetic and bioavailabilities after oral and intraperitoneal (i.p.) treatment bioavailability in CD-1 mice. Pharmacokinetics and bioavailability of after oral and i.p. treatment in CD-1 mice (n=4 per dose group) are determined.

PKG1a = PKG1a (Homo sapiens, UniProt Q13976); test: radiometric kinase assay, other kinases: PKG1a; assay type: biochemical; conditions: duplicate
Description: as §1

PKG1b = PKG1b (Homo sapiens, UniProt Q13976); test: radiometric kinase assay, other kinases: PKG1b; assay type: biochemical; conditions: duplicate
Description: as §1

BTK = BTK (Homo sapiens, UniProt Q06187); test: radiometric kinase assay, other kinases: BTK; assay type: biochemical; conditions: duplicate
Description: as §1

[3] = test system: Capan-1 human pancreatic cancer cells; test: Cell Viability and Proliferation Assay, Capan-1; assay type: cell-based; conditions: after 24 incubation
Description: (§2) Cell Viability and Proliferation Assays. To assess the chemosensitivity of tumor cells, cell viability is measured by CellTiter-Glo® Luminescent Cell Viability Assay (Promega; Wis., USA) per the manufacturer's instruction. Briefly, 5×10^3 to 7×10^5 cells/ml are cultured in sterile 96-well plates in the presence of increasing concentrations of the drugs (test article, 0 to 100 μM), or vehicle in RPMI medium. The plates are then incubated for 24 to 96 h, and then 100 μl of CellTiter-Glo reagent is added to lyse the cells. After a 10-min incubation at room temperature, the luminescence is recorded in a luminometer with an integration time of 1 s per well. The luminescence signals for the drug-treated cells are normalized by the luminescence signal obtained from vehicle-treated cells. As an alternative method to quantitate cell viability, the trypan blue exclusion dye method was used. Vehicle- or drug-treated cells were assayed by adding trypan blue solution (0.4% in phosphate-buffered saline [PBS]) to the culture medium. After 3 min, the number of dead cells that retained the dye is compared to the total number of cells to calculate cell viability. GraphPad Prism 5 software is used to calculate IC50 and plot effect-dose curve of drugs. Multiplate reader: EnVision 2104 (PerkinElmer). % of control variability=100*[(X(drug_treated)−L(baseline))/(H(vehicle_control)−L(baseline))]. […]

TIE2/TEK = biological target: T2, TIE2/TEK (Homo sapiens, UniProt Q02763); test: radiometric kinase assay, other kinases: TIE2/TEK; assay type: biochemical; conditions: duplicate
T2 construct: other kinases of recombinant human cytoplasmic domain
Description: as §1

[4] = test system: BxPC-3 human pancreatic cancer cells; test: Cell Viability and Proliferation Assay, BxPC-3; assay type: cell-based; conditions: after 24 incubation
Description: as §2

FYN = FYN (Homo sapiens, UniProt P06241); test: radiometric kinase assay, other kinases: FYN; assay type: biochemical; conditions: duplicate
Description: as §1

MEK2 = MEK2 (Homo sapiens, UniProt P36507); test: radiometric kinase assay, other kinases: MEK2; assay type: biochemical; conditions: duplicate
Description: as §1

TGFbR2 = biological target: T3, TGFbR2 (Homo sapiens, UniProt P37173); test: radiometric kinase assay, other kinases: TGFbR2; assay type: biochemical; conditions: duplicate
T3 construct: other kinases of recombinant human cytoplasmic domain
Description: as §1

CDK2/cyclinA = CDK2/cyclinA (Homo sapiens, UniProt P24941); test: radiometric kinase assay, other kinases: CDK2/cyclinA; assay type: biochemical; conditions: duplicate
Description: as §1

ITK = ITK (Homo sapiens, UniProt Q08881); test: radiometric kinase assay, other kinases: ITK; assay type: biochemical; conditions: duplicate
Description: as §1

c-MET = biological target: T4, c-MET (Homo sapiens, UniProt P08581); test: radiometric kinase assay, other kinases: c-MET; assay type: biochemical; conditions: duplicate
T4 construct: other kinases of recombinant human cytoplasmic domain
Description: as §1

PKCalpha = PKCalpha (Homo sapiens, UniProt P17252); test: radiometric kinase assay, other kinases: PKCalpha; assay type: biochemical; conditions: duplicate
Description: as §1

LCK = LCK (Homo sapiens, UniProt P06239); test: radiometric kinase assay, other kinases: LCK; assay type: biochemical; conditions: duplicate
Description: as §1

MLK1/MAP3K9 = MLK1/MAP3K9 (Homo sapiens, UniProt P80192); test: radiometric kinase assay, other kinases: MLK1/MAP3K9; assay type: biochemical; conditions: duplicate
Description: as §1

LYN = LYN (Homo sapiens, UniProt P07948); test: radiometric kinase assay, other kinases: LYN; assay type: biochemical; conditions: duplicate
Description: as §1

VEGFR2/KDR = biological target: T5, VEGFR2/KDR (Homo sapiens, UniProt P35968); test: radiometric kinase assay, other kinases: VEGFR2/KDR; assay type: biochemical; conditions: duplicate
T5 construct: other kinases of recombinant human cytoplasmic domain
Description: as §1

Sequence of ITK (Q08881 whole entry): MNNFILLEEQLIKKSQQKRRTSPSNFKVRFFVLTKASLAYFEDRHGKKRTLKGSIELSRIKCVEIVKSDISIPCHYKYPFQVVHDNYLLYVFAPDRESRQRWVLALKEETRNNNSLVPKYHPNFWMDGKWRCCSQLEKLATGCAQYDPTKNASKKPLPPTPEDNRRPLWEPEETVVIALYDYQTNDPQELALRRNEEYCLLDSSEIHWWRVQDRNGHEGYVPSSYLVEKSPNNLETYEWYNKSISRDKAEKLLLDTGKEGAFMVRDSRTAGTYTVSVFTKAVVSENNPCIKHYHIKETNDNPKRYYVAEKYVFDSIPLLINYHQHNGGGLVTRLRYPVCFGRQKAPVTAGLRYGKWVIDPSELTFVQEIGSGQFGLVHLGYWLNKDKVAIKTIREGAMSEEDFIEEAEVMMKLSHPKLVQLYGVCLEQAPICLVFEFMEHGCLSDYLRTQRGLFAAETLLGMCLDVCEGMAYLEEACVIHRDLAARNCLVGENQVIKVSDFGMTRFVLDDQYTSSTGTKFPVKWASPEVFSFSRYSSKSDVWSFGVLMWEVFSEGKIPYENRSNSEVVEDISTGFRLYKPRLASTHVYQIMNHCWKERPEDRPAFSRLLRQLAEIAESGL
T2 sequence (Q02763 770-1124 limits assumed): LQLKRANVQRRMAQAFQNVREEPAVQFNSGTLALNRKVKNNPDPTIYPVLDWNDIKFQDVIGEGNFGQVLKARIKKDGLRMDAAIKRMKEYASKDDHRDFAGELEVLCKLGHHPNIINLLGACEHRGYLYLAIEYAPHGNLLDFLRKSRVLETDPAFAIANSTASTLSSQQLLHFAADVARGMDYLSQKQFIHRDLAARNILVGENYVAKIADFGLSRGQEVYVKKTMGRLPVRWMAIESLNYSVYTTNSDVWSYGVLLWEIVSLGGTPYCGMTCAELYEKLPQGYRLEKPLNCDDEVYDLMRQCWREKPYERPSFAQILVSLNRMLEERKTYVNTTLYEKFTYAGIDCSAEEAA
Sequence of LYN (P07948 whole entry): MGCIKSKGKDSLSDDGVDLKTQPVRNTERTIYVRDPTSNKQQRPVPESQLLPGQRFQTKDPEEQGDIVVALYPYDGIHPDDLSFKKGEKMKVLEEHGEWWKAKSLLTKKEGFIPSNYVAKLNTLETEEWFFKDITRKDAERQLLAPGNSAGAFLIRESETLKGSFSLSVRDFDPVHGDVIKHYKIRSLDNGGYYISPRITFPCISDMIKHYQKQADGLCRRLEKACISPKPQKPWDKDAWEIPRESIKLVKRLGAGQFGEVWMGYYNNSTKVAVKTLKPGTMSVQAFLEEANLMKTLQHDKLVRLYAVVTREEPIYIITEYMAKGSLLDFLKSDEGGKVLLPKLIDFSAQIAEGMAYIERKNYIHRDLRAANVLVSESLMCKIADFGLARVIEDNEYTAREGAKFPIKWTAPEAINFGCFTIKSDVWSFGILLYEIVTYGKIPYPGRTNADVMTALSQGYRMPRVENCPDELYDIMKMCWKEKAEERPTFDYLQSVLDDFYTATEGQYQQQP
T5 sequence (P35968 786-1356 limits assumed): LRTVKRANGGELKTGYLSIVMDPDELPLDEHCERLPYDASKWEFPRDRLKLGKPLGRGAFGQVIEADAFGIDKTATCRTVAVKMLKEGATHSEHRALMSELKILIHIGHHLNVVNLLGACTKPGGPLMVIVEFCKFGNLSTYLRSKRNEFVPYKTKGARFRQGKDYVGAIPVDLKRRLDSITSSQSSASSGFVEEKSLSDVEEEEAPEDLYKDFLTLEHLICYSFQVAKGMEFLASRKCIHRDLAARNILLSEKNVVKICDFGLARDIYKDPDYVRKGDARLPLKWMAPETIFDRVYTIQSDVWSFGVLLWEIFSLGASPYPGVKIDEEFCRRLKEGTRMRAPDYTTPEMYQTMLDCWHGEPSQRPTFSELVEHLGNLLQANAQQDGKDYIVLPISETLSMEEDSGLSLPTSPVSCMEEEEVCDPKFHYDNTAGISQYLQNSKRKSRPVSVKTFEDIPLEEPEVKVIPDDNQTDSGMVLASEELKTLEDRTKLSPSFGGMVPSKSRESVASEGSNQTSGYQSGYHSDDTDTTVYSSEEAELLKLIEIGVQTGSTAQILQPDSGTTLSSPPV
Sequence of PKG1a (Q13976 whole entry): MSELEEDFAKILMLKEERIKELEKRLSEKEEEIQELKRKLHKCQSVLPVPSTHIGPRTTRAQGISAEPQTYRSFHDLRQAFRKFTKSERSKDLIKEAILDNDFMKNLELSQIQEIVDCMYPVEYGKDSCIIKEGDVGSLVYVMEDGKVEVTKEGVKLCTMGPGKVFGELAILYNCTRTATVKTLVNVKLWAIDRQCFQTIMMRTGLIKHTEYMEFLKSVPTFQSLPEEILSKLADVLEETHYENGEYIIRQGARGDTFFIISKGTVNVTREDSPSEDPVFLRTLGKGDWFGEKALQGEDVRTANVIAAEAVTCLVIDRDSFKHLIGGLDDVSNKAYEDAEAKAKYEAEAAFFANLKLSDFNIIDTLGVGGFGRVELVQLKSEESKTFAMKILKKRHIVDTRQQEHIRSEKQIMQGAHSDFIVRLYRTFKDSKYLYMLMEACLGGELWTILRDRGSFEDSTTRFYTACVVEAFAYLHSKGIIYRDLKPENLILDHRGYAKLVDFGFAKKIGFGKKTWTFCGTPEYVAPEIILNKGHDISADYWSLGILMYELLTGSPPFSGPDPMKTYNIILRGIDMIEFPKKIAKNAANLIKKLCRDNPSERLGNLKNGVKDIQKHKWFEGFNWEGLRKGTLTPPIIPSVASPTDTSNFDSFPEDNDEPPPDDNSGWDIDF
Sequence of BTK (Q06187 whole entry): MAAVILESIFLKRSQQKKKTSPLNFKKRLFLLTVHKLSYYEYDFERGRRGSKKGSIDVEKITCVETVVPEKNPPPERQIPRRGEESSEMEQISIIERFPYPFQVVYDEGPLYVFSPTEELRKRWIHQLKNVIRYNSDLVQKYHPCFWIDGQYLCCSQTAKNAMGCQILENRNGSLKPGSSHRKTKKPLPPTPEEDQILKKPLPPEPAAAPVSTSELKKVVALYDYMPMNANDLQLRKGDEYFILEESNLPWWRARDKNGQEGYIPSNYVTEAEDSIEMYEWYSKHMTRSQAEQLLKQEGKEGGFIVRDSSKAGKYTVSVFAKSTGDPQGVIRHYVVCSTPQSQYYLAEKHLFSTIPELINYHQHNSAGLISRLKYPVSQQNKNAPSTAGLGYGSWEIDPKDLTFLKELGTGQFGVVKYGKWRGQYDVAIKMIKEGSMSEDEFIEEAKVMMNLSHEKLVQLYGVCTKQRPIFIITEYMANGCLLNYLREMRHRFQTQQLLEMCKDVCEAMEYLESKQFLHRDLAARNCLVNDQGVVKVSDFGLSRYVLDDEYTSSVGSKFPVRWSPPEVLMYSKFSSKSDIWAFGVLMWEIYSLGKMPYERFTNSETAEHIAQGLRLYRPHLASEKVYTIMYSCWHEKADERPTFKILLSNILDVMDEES
Sequence of FYN (P06241 whole entry): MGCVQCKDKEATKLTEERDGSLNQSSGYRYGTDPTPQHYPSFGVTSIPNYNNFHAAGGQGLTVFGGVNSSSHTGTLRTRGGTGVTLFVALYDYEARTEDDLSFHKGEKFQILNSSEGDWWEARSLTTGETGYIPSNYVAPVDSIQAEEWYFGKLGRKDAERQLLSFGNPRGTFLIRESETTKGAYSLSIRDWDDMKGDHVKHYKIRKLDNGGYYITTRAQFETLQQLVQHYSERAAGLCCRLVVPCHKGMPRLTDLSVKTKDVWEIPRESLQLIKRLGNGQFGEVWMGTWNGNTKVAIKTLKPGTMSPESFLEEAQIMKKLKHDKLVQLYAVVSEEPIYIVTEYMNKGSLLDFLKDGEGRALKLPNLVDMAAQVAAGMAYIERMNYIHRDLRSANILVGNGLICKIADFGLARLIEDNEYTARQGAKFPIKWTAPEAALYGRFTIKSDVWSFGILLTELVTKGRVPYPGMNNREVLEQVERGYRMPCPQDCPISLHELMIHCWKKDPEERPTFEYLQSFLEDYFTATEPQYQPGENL
T1 sequence (P21709 569-976 limits assumed): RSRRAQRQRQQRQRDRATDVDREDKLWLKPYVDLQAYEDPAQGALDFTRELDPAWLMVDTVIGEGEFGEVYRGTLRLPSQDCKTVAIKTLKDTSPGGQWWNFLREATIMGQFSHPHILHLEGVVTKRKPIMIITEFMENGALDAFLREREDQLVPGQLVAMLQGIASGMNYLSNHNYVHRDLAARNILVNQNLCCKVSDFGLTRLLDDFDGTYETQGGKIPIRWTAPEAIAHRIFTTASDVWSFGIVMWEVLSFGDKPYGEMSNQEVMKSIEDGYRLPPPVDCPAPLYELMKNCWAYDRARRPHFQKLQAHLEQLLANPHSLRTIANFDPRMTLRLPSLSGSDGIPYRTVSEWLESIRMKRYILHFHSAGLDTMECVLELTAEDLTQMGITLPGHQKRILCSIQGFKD

IC50 (PKCtheta): > 10 µM
IC50 (CDK1/cyclinB): > 10 µM
IC50 (EPHA1): > 10 µM
IC50 (c-Src): > 10 µM
half-life ([2]; CD-1, mouse, ip, 50 mg/kg): ~3.5 h
half-life ([2]; CD-1, mouse, iv): ~1 h
bioavailability ([2]; CD-1, mouse, po, 50 mg/kg): ~100%
half-life ([2]; CD-1, mouse, po, 50 mg/kg): ~4.5 h
bioavailability ([2]; mouse, ip, CD-1 mice, 50 mg/kg i.p. dosing, read-out: i.p. bioavailability): ~100%
IC50 (PKG1a): > 10 µM
IC50 (PKG1b): > 10 µM
IC50 (BTK): > 10 µM
IC50 [3]: 2 to 5 µM
IC50 (TIE2/TEK): > 10 µM
IC50 [4]: 2 to 5 µM
IC50 (FYN): > 10 µM
IC50 (MEK2): > 10 µM
IC50 (TGFbR2): > 10 µM
IC50 (CDK2/cyclinA): > 10 µM
IC50 (ITK): > 10 µM
IC50 (c-MET): > 10 µM
IC50 (PKCalpha): > 10 µM
IC50 (LCK): > 10 µM
IC50 (MLK1/MAP3K9): > 10 µM
IC50 (LYN): > 10 µM
IC50 (VEGFR2/KDR): > 10 µM
SMILES: Nc1c(N2CCN(C3CCCCC3)CC2)cc(Nc2ccc(C(=O)O)cc2)c2c1C(=O)c1ccccc1C2=O [Compound 12, 4-{[4-amino-3-(4-cyclohexylpiperazin-1-yl)-9,10-dioxo-9,10-dihydroanthracen-1-yl]amino}benzoic acid]
relative analgesic effect compared to morphine (HCl) at 3 mg/kg, s.c. [1]: about 48%
